Measurements published in patent US7022708B2, “4-piperazinyl benzenesulfonyl indoles and uses thereof” (Roche Palo Alto LLC, priority 2002, dated 2006).

melting point [°C] | SMILES
77 to 78 | O=S(=O)(c1ccc(N2CCNCC2)cc1)n1ccc2cc(F)ccc21 [Compound 1, 5-Fluoro-1-(4-piperazin-1-yl-benzenesulfonyl)-1H-indole]
246 to 248.5 | O=S(=O)(c1ccc(N2CCNCC2)cc1)c1cc2ccccc2[nH]1 [Compound 39, 2-(4-Piperazin-1-yl-benzenesulfonyl)-1H-indole]
